Laboratory results: publication PMC10135378, “Synthesis of Novel N-Heterocyclic Carbene-Ruthenium (II) Complexes, “Precious” Tools with Antibacterial, Anticancer and Antioxidant Properties” (Antibiotics, 2023)

Experiments:
MDA-MB-231 cells = test: TUNEL assay, apoptosis; format: cell-based, human; details: complexes at their IC50 values, 24 h
Procedure: Thus, using the TUNEL assay we determined whether the Ru-NHC complexes RANHC-V and -VI were able to trigger apoptosis in the MDA-MB-231 cells. The latter were first exposed to the Ru complexes, used at their IC50 values for 24 h, and then subjected to the rTdT enzyme, as indicated in the experimental section.
A TUNEL assay was used for cells apoptosis detection, following the manufacturer’s protocols (CF™488A TUNEL Assay Apoptosis Detection Kit, Biotium, Hayward, CA, USA), with some changes. Briefly, cells were seeded and then processed, as described. DAPI (0.2 μg/mL, Sigma Aldrich, Milan, Italy) staining was adopted for nuclei. A fluorescence microscope (Leica DM 6000) was used for fluorescence detection (20x magnification). LAS-X software was used to acquire and process all the images that are representative of three different experiments.
Figure 5 TUNEL assay. MDA-MB-231 breast cancer cells were treated with Ru-NHC complexes RANHC-V and -VI at their IC50 values or with the vehicle (CTRL) for 24 h. Then, cells were incubated with rTdT enzyme and then observed and imaged under an inverted fluorescence microscope at 20× magnification (see Materials and Methods section). Panels (A): DAPI (λex/λem = 350/460 nm); Panels (B): CF^TM488A (λex/λem = 490/515 nm); Panels (C): show the overlay. Fields are representative of three independent experiments.

human topoisomerase II = target: T1, human topoisomerase II (Homo sapiens, UniProt P11388); test: hTopo II decatenation assay; format: biochemical; details: 10 and 50 µM, 2 h at 37 °C, kDNA substrate
T1 construct: purchased TopoGEN, Port Orange, FL
Procedure: In Figure 4, only the results obtained at 50 μM concentration are reported (the same result was obtained at 10 μM) and as visible; under RANHC-V and -VI exposure, two bands related to the decatenation products at the bottom of the gel were detected (Figure 4, lanes 5 and 6), similarly to the CTRL reaction (Figure 4, lane 4).
Similarly, hTopoII decatenation assays were carried out incubating the kinetoplast DNA (kDNA) substrate with the hTopoII (TopoGEN, Port Orange, FL) and compounds RANHC-V and -VI or DMSO (CTRL) following the manufacturer’s procedures (TopoGEN, Port Orange, FL, USA), with some changes.
Figure 4 Human topoisomerase II decatenation assay. hTopo II was incubated with the vehicle alone (CTRL) or with the tested complexes RANHC-V and -VI at 50 µM for 2 h at 37 °C, using the kinetoplast DNA (kDNA) as the substrate. 1, linear DNA marker; 2, decatenated DNA marker; 3, kinetoplast DNA; 4, CTRL (DMSO); 5 and 6, Ru-NHC complexes RANHC-V and -VI (50 µM), respectively. The image is representative of three separate experiments.

human topoisomerase I = target: T2, human topoisomerase I (Homo sapiens, UniProt P11387); test: hTopo I relaxation assay; format: biochemical; details: 10 µM, 2 h at 37 °C, supercoiled pHOT1 substrate
T2 construct: purchased TopoGEN, Port Orange, FL, USA
T2 sequence (P11387 1-765): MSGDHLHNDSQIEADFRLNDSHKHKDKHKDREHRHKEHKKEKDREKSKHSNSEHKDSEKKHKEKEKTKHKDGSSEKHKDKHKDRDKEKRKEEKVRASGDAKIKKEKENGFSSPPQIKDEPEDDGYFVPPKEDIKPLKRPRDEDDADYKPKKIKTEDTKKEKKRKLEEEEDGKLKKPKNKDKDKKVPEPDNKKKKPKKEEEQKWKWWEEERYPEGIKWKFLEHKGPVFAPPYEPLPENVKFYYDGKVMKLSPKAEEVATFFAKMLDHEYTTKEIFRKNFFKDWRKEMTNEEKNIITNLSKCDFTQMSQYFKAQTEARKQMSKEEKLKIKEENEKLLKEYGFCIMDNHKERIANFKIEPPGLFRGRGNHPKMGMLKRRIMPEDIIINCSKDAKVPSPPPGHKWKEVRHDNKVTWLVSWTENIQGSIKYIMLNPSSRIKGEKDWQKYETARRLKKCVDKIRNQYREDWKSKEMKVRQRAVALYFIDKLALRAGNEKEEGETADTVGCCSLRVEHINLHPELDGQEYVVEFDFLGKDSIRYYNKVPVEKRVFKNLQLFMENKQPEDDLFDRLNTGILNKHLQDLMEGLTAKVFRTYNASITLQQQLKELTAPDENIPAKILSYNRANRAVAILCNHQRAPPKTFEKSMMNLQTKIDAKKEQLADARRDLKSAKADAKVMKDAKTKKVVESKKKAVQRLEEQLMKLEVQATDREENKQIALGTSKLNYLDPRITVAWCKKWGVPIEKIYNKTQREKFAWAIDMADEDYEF
Excerpt: We performed the hTopo I relaxation assay using as a substrate the supercoiled plasmid pHOT1 and exposing the enzyme to our selected complexes or vehicle. […] Indeed, in lanes 4 and 5, corresponding to the enzymatic reactions in the presence of complexes RANHC-V or -VI, only the supercoiled DNA was present, noticeable as a single band in the lower portion of the agarose gel. Contrarily, in the CTRL (vehicle) reaction (Figure 3, lane 3), multiple bands related to the relaxed DNA products were detected.
hTopoI relaxation assays were done using the supercoiled pHOT1 as substrate, with the recombinant hTopoI (TopoGEN, Port Orange, FL, USA) and compounds RANHC-V and -VI or DMSO (CTRL) following the manufacturer’s protocol (TopoGEN, Port Orange, FL, USA), with some changes.
Figure 3 Human topoisomerase I […] assay. hTopo I was incubated with the vehicle alone (CTRL) or with the tested complexes RANHC-V and -VI at 10 µM for 2 h at 37 °C, using the supercoiled DNA pHOT1 as substrate. 1, relaxed DNA marker; 2, pHOT1; 3, CTRL (DMSO); 4 and 5, Ru-NHC complexes RANHC-V and -VI (10 µM), respectively. The image is representative of three separate experiments.

T1 sequence (P11388 whole entry): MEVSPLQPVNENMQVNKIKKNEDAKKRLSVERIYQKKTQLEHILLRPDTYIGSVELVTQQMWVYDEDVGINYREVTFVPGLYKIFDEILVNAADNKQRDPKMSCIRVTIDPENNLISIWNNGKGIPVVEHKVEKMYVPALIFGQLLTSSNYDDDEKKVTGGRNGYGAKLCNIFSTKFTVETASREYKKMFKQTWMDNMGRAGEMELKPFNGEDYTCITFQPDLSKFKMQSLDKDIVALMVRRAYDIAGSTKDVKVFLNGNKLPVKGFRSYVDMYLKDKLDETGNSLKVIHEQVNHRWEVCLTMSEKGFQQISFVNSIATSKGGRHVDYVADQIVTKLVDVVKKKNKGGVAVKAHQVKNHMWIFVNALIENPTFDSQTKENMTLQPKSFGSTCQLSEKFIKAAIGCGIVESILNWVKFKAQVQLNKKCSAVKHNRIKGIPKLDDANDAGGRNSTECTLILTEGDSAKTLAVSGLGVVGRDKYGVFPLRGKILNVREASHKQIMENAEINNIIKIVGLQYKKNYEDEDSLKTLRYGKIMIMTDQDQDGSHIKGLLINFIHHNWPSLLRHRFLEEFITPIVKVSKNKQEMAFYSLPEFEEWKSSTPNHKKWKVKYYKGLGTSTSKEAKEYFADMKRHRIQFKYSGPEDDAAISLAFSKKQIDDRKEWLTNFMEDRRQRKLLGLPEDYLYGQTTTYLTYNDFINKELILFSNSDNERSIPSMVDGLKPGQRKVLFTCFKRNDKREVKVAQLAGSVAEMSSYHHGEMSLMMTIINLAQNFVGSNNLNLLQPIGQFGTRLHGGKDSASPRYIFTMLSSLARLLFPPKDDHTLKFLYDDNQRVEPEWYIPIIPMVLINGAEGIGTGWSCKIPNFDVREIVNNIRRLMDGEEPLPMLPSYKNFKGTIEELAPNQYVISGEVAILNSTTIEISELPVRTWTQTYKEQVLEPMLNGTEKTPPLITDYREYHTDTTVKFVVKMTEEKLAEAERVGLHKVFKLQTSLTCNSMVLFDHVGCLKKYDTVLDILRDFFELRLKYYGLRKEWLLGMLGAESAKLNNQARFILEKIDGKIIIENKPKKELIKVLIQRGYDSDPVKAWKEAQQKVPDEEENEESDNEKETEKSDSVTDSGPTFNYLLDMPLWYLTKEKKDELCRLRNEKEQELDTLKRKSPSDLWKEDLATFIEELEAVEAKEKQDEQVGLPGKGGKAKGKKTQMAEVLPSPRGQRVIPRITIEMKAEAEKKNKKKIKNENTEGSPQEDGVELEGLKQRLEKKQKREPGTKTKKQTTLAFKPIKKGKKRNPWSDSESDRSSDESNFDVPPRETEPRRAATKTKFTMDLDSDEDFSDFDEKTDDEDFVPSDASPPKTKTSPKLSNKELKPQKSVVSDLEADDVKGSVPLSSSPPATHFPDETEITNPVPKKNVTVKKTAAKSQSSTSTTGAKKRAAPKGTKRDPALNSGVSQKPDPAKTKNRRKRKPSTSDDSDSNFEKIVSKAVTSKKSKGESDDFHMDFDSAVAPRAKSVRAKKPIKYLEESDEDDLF

SMILES | apoptosis (TUNEL) (MDA-MB-231 cells) | inhibition of hTopo II activity (human topoisomerase II) | inhibition of hTopo I activity (human topoisomerase I)
COC(Cn1c(Cl)c(Cl)n(C)[c]1=[Ru]([Cl])[Cl])c1ccccc1.Cc1ccc(C(C)C)cc1 (stereo not drawn) [RANHC-V] | TUNEL-positive | absence of any inhibitory activity | totally inhibit
COC(Cn1[c](=[Ru]([Cl])[Cl])n(C)c2ccccc21)c1ccccc1.Cc1ccc(C(C)C)cc1 (stereo not drawn) [RANHC-VI] | TUNEL-positive | absence of any inhibitory activity | totally inhibit
